Reference: PMC11969009 (Nature Communications, 2025)
pEC50, pIC50: −log10 of the molar value. Several values for one entry are separate records, joined by “and”; a condition that tells them apart may be missing. Identical values can stand only once. Like-named read-outs stand apart in the source and are kept apart here.

Experiments:
[1] = tested on: SARS-CoV-2 clinical isolate VIC001; assay: microbe, parasite or virus in culture; type: cell-based; settings: for pEC50: Severe acute respiratory syndrome coronavirus 2, Vero
[2] = biological target: T1, SARS-CoV-2 PLpro (Severe acute respiratory syndrome coronavirus 2, UniProt P0DTD1)
[3] = biological target: T1, SARS-CoV-2 PLpro; assay: biochemical; parameters: inhibition of SARS-CoV-2 PLpro, UbRh dose-response replicate value: unit: %; settings: for pIC50: IC50 (UbRh) SARS-CoV-2 PLpro
[4] = biological target: T1, SARS-CoV-2 PLpro; assay: cell-based; type: cell-based
[5] = tested on: SARS-CoV-2 P2 strain; parameters: species or system C57BL/6 (WT) mice; settings: mouse, in vivo
[6] = tested on: CYP3A4/5; assay: in vitro; settings: human, microsomes
[7] = tested on: CYP3A4/5; assay: in vitro; settings: human, microsomes, pH 7.4, CYP3A4/5 IC50
[8] = tested on: CYP3A4/5; settings: human, microsomes
[9] = tested on: CYP3A4/5; settings: human, microsomes, pH 7.4
[10] = biological target: CYP2C8 (Homo sapiens, UniProt P10632); settings: microsomes
[11] = biological target: CYP2B6 (Homo sapiens, UniProt P20813); assay: biochemical
[12] = read-out: Antiviral EC50 (plaque assay)

Sequence of CYP2B6 (P20813 whole entry): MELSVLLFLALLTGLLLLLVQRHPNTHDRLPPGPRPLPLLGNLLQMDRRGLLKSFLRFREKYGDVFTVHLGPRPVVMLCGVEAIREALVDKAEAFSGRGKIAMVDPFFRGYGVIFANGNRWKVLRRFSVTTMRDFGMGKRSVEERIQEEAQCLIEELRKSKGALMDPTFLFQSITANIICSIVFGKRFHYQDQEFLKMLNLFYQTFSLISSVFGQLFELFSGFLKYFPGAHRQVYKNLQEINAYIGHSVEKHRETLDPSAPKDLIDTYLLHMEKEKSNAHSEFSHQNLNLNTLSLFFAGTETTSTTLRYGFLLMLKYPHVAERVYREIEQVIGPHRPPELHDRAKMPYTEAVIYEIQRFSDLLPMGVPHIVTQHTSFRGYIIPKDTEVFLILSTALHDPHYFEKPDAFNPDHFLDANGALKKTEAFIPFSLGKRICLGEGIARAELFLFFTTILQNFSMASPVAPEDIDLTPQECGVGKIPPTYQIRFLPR
Sequence of CYP2C8 (P10632 whole entry): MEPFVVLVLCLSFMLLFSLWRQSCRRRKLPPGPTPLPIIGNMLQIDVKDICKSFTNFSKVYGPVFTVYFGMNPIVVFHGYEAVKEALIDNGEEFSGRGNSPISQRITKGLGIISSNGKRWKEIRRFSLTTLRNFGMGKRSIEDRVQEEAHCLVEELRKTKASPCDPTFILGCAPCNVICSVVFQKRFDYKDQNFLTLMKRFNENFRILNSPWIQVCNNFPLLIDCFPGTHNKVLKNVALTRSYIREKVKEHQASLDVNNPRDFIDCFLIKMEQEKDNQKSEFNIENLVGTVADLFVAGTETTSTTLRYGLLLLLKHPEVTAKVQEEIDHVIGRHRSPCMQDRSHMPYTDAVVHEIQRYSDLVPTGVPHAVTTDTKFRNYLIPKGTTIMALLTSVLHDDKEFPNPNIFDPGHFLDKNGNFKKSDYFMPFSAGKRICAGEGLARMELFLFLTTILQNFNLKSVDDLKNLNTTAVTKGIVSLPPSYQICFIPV

CO/N=C(/c1ccc2cc(OC)ccc2c1)C1CCCN(C2CCCC2)C1 (stereo not drawn) [WEHI-P2] was tested, and the pEC50 [1, 12] was less than 5.70, the “Molar Mass (kDa)” value [2] was 34.0141 kDa and 34.3179 kDa and 34.334 kDa and the “observed molar mass of PLpro (SEC-MALS)” value [2] was 34.2 kDa. For the same compound, the “IC50 (UbRh) SARS-CoV-2 PLpro” value [3] was “submicromolar”, the “inhibition of SARS-CoV-2 PLpro, UbRh dose-response replicate value” (from here on “inhibition of SARS-CoV-2 PLpro”) ([3]; Conc 0.00498 µM) was -15.8303 and -11.7404 and -10.1452 and -13.4396 and 0.4248 and 3.42 and -8.071 and -0.3979 and the “inhibition of SARS-CoV-2 PLpro” value ([3]; Conc 0.0149 µM) was -13.9221 and -7.6283 and -8.496 and -15.6937 and -2.169 and 1.092 and -11.0387 and -1.093. The “inhibition of SARS-CoV-2 PLpro” value ([3]; Conc 0.0448 µM) was -10.8825 and -7.692 and -10.0063 and -17.0131 and 5.235 and 6.569 and -0.8163 and 5.0409, the “inhibition of SARS-CoV-2 PLpro” value ([3]; Conc 3.63 µM) was 108.558 and 106.946 and 112.788 and 102.006 and 101.573 and 101.518 and 102.655 and the inhibition at 3.63 µM ([3]; Conc 3.63 µM, read-out: inhibition of SARS-CoV-2 PLpro, UbRh dose-response replicate value) was 110%. For the same compound, the “inhibition of SARS-CoV-2 PLpro” value ([3]; Conc 98 µM) was 126.525 and 125.26 and 122.237 and 129.703 and 110.886 and 110.306 and 111.038 and 109.523, the “inhibition of SARS-CoV-2 PLpro” value ([3]; Conc […]) was 108.844 and the pIC50 [3] was 6.40. The pIC50 ([3]; Supplementary Fig. 2b) was 6.19, the inhibition at […] ([3]; read-out: inhibition of SARS-CoV-2 PLpro, UbRh dose-response replicate value) was 127% and 123% and 74.5% and the pEC50 [4] was 4.96. The “FRET EC50 (cellular)” value [4] was “micromolar cellular activity”.
With CC(C)(C)[C@H](NC(=O)C(F)(F)F)C(=O)N1C[C@H]2[C@@H]([C@H]1C(=O)N[C@H](C#N)C[C@@H]1CCNC1=O)C2(C)C [Nirmatrelvir, nirmatrelvir, reference compound] the pEC50 [1, 12] was less than 5.70, the pEC50 ([1]; read-out: Antiviral EC50 (plaque assay) with Pgp inhibitor) was 6.28 and the “Ext Data Fig 2f dose response (0 µM = 100)” value (from here on “Ext Data Fig 2f dose response”) ([1]; concentration 0.01 µM) was 108.0460 and 101.2658 and 103.7975 and 95.0617 and 93.8272 and 95.6522. The “Ext Data Fig 2f dose response” value ([1]; concentration 0.02 µM) was 90.8046 and 108.8608 and 111.3924 and 104.9383 and 98.7654 and 104.3478, the “Ext Data Fig 2f dose response” value ([1]; concentration 0.04 µM) was 97.7011 and 96.2025 and 105.0633 and 97.5309 and 90.1235 and 85.5072 and the “Ext Data Fig 2f dose response” value ([1]; concentration 0.08 µM) was 93.1034 and 89.8734 and 106.3291 and 109.8765 and 100.0000 and 102.8986. The “Ext Data Fig 2f dose response” value ([1]; concentration 0.3 µM) was 104.5977 and 108.8608 and 102.5316 and 58.0247 and 83.9506 and 71.0145 and the “antiviral activity (lung viral burden), mild model” value [5] was “no antiviral activity”.
For CC(=O)N1CCN(c2ccc(OCC3COC(Cn4ccnc4)(c4ccc(Cl)cc4Cl)O3)cc2)CC1 (stereo not drawn) [Ketoconazole, reference compound], the IC50 shift ([6]; Fold Shift IC50 (-NADPH) / IC50 (+NADPH)) was 0.8, the pIC50 ([6]; Time dependent CYP3A4/5 IC50 + NADPH) was 7.80 and the pIC50 ([6]; Time dependent CYP3A4/5 IC50 - NADPH) was 7.89. The pIC50 [7] was 8.00, the “Fold Shift IC50 (-NADPH) / IC50 (+NADPH)” value [8] was 0.68 and the pIC50 [8] was 8.08. The pIC50 [9] was 7.96.
For quercitin [reference compound], the pIC50 [10] was 5.64.
Compound CC(C)(c1ccccc1)N1CCCCC1 [2-phenyl-2-(1-piperidinyl) propane, reference compound] has a pIC50 [11] of 5.05.
